Assay results: US20260262643A1, “HERBICIDAL BENZOXAZINES” (FMC CORPORATION, priority 2022, published 2026)

What was measured:
barnyardgrass [1] = test: Test C preemergence; format: in vivo, Echinochloa crusgalli; conditions: 0 to 100 scale (0 no effect, 100 complete control); for Barnyardgrass plant response rating: preemergence
Procedure, shortened: (§1)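 Visual injury ratings on a 0–100 scale (100 = complete control) were made against untreated controls 10 days after treatment in the greenhouse. Compounds, formulated with surfactant in non-phytotoxic solvent, were sprayed on soil preemergence or onto one- to two-leaf plants 2–10 cm tall postemergence.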

blackgrass [2] = test: Test C preemergence; format: in vivo, Alopecurus myosuroides; conditions: 0 to 100 scale (0 no effect, 100 complete control); for Blackgrass plant response rating: preemergence
Procedure, shortened: as §1

corn [3] = test: Test C preemergence; format: in vivo, Zea mays; conditions: 0 to 100 scale (0 no effect, 100 complete control); for Corn plant response rating: preemergence
Procedure, shortened: as §1

green foxtail [4] = test: Test C preemergence; format: in vivo, Setaria viridis; conditions: 0 to 100 scale (0 no effect, 100 complete control); for Foxtail, Green plant response rating: preemergence
Procedure, shortened: as §1

kochia [5] = test: Test C preemergence; format: in vivo, Bassia scoparia; conditions: 0 to 100 scale (0 no effect, 100 complete control); for Kochia plant response rating: preemergence
Procedure, shortened: as §1

oat, wild [6] = test: Test C preemergence; format: in vivo, Avena fatua; conditions: 0 to 100 scale (0 no effect, 100 complete control); for Oat, Wild plant response rating: preemergence
Procedure, shortened: as §1

pigweed, palmer [7] = test: Test C preemergence; format: in vivo, Amaranthus palmeri; conditions: 0 to 100 scale (0 no effect, 100 complete control); for Pigweed, Palmer plant response rating: preemergence
Procedure, shortened: as §1

ragweed [8] = test: Test C preemergence; format: in vivo, Ambrosia artemisiifolia; conditions: 0 to 100 scale (0 no effect, 100 complete control); for Ragweed plant response rating: preemergence
Procedure, shortened: as §1

ryegrass, Italian [9] = test: Test C preemergence; format: in vivo, Lolium multiflorum; conditions: 0 to 100 scale (0 no effect, 100 complete control); for Ryegrass, Italian plant response rating: preemergence
Procedure, shortened: as §1

soybean [10] = test: Test C preemergence; format: in vivo, Glycine max; conditions: 0 to 100 scale (0 no effect, 100 complete control); for Soybean plant response rating: preemergence
Procedure, shortened: as §1

wheat [11] = test: Test C preemergence; format: in vivo, Triticum aestivum; conditions: 0 to 100 scale (0 no effect, 100 complete control); for Wheat plant response rating: preemergence
Procedure, shortened: as §1

barnyardgrass [12] = test: Test C postemergence; format: in vivo, Echinochloa crusgalli; conditions: 10 days
Procedure, shortened: as §1

blackgrass [13] = test: Test C postemergence; format: in vivo, Alopecurus myosuroides; conditions: 10 days
Procedure, shortened: as §1

corn [14] = test: Test C postemergence; format: in vivo, Zea mays; conditions: 10 days
Procedure, shortened: as §1

green foxtail [15] = test: Test C postemergence; format: in vivo, Setaria viridis; conditions: 10 days
Procedure, shortened: as §1

kochia [16] = test: Test C postemergence; format: in vivo, Bassia scoparia; conditions: 10 days
Procedure, shortened: as §1

oat, wild [17] = test: Test C postemergence; format: in vivo, Avena fatua; conditions: 10 days
Procedure, shortened: as §1

pigweed, palmer [18] = test: Test C postemergence; format: in vivo, Amaranthus palmeri; conditions: 10 days
Procedure, shortened: as §1

ragweed [19] = test: Test C postemergence; format: in vivo, Ambrosia artemisiifolia; conditions: 10 days
Procedure, shortened: as §1

ryegrass, Italian [20] = test: Test C postemergence; format: in vivo, Lolium multiflorum; conditions: 10 days
Procedure, shortened: as §1

soybean [21] = test: Test C postemergence; format: in vivo, Glycine max; conditions: 10 days
Procedure, shortened: as §1

wheat [22] = test: Test C postemergence; format: in vivo, Triticum aestivum; conditions: 10 days
Procedure, shortened: as §1

galium = test: Test C postemergence; format: in vivo, Galium aparine; conditions: 10 days
Procedure, shortened: as §1

horseweed = test: Test C postemergence; format: in vivo, Erigeron canadensis; conditions: 10 days
Procedure, shortened: as §1

barnyardgrass [23] = test: Test D flooded paddy test; format: in vivo, Echinochloa crus-galli; conditions: 250 g ai/ha, applied to paddy water, visual rating after 13 to 14 days, scale 0 to 100 (0 no effect, 100 complete control)
Procedure, shortened: (§2)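 Compounds go straight into paddy water over 2-leaf plants in pots flooded to 3 cm. Greenhouse holding lasts 13 to 14 days. Injury is scored by eye against controls from 0 (none) to 100 (complete control).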

ducksalad = test: Test D flooded paddy test; format: in vivo, Heteranthera limosa; conditions: 250 g ai/ha, applied to paddy water, visual rating after 13 to 14 days, scale 0 to 100 (0 no effect, 100 complete control)
Procedure, shortened: as §2

rice = test: Test D flooded paddy test; format: in vivo, Oryza sativa; conditions: 250 g ai/ha, applied to paddy water, visual rating after 13 to 14 days, scale 0 to 100 (0 no effect, 100 complete control)
Procedure, shortened: as §2

sedge, umbrella = test: Test D flooded paddy test; format: in vivo, Cyperus difformis; conditions: 250 g ai/ha, applied to paddy water, visual rating after 13 to 14 days, scale 0 to 100 (0 no effect, 100 complete control)
Procedure, shortened: as §2

[24] = 500 g ai/ha, postemergence, 0 to 100 scale (0 no effect, 100 complete control)
[25] = Postemergence, 125 g ai/ha, 0 to 100 scale (0 no effect, 100 complete control)
[26] = Preemergence, 500 g ai/ha, visual rating after 10 days
[27] = 125 g ai/ha, postemergence, 0 to 100 scale, 0 no effect, 100 complete control
[28] = Postemergence, 500 g ai/ha, visual 0 to 100 scale (0 no effect, 100 complete control)

Cc1cccc2c1O[C@@H](C)CN2C(=O)c1cccc(-n2cnc([N+](=O)[O-])n2)c1 [Compound 306]
90: Plant response rating, Soybean (soybean [21]; [24])
40: Ryegrass, Italian plant response rating (ryegrass, Italian [9]; 500 g ai/ha)
20: Ragweed plant response rating (ragweed [8]; 500 g ai/ha) | Ragweed plant response rating (ragweed [8]; Test C, 125 g ai/ha) | Plant response rating, Pigweed, Palmer (pigweed, palmer [18]; [24])
10: Pigweed, Palmer plant response rating (pigweed, palmer [7]; 500 g ai/ha) | Plant response rating, Barnyardgrass (barnyardgrass [12]; [24]) | Plant response rating, Barnyardgrass (barnyardgrass [12]; [25]) | Plant response rating, Blackgrass (blackgrass [13]; [24]) | Plant response rating, Corn (corn [14]; [24]) | Plant response rating, Kochia (kochia [16]; [24]) | Plant response rating, Kochia (kochia [16]; [25]) | Plant response rating, Wheat (wheat [22]; [24])
30: Ryegrass, Italian plant response rating (ryegrass, Italian [9]; Test C, 125 g ai/ha) | Plant response rating, Foxtail, Green (green foxtail [15]; [25]) | Plant response rating, Ragweed (ragweed [19]; [25]) | Plant response rating, Soybean (soybean [21]; [25]) | Plant response rating, Galium (galium; [25]) | Plant response rating, Horseweed (horseweed; [25])
0: Barnyardgrass plant response rating (barnyardgrass [1]; 500 g ai/ha) | Barnyardgrass plant response rating (barnyardgrass [1]; Test C, 125 g ai/ha) | Blackgrass plant response rating (blackgrass [2]; 500 g ai/ha) | Corn plant response rating (corn [3]; 500 g ai/ha) | Corn plant response rating (corn [3]; Test C, 125 g ai/ha) | Foxtail, Green plant response rating (green foxtail [4]; Test C, 125 g ai/ha) | Kochia plant response rating (kochia [5]; 500 g ai/ha) | Kochia plant response rating (kochia [5]; Test C, 125 g ai/ha) | Oat, Wild plant response rating (oat, wild [6]; 500 g ai/ha) | Oat, Wild plant response rating (oat, wild [6]; Test C, 125 g ai/ha) | Pigweed, Palmer plant response rating (pigweed, palmer [7]; Test C, 125 g ai/ha) | Soybean plant response rating (soybean [10]; 500 g ai/ha) | Soybean plant response rating (soybean [10]; Test C, 125 g ai/ha) | Wheat plant response rating (wheat [11]; 500 g ai/ha) | Wheat plant response rating (wheat [11]; Test C, 125 g ai/ha) | Plant response rating, Blackgrass (blackgrass [13]; [25]) | Plant response rating, Corn (corn [14]; [25]) | Plant response rating, Oat, Wild (oat, wild [17]; [24]) | Plant response rating, Oat, Wild (oat, wild [17]; [25]) | Plant response rating, Pigweed, Palmer (pigweed, palmer [18]; [25]) | Plant response rating, Ragweed (ragweed [19]; [24]) | Plant response rating, Ryegrass, Italian (ryegrass, Italian [20]; [24]) | Plant response rating, Ryegrass, Italian (ryegrass, Italian [20]; [25]) | Plant response rating, Wheat (wheat [22]; [25]) | Plant response rating, Horseweed (horseweed; [24]) | Plant response rating, Barnyardgrass (Flood) (barnyardgrass [23]) | Plant response rating, Ducksalad (Flood) (ducksalad) | Plant response rating, Rice (Flood) (rice) | Plant response rating, Sedge, Umbrella (Flood) (sedge, umbrella)
50: Foxtail, Green plant response rating (green foxtail [4]; 500 g ai/ha) | Plant response rating, Foxtail, Green (green foxtail [15]; [24]) | Plant response rating, Galium (galium; [24])

Cc1ccc(-n2cnc(C(C)C)n2)cc1C(=O)N1C[C@H](C)Oc2c1cccc2C(F)(F)F [Compound 170]
50: Blackgrass plant response rating (blackgrass [2]; Test C, 125 g ai/ha) | Wheat plant response rating (wheat [11]; Test C, 125 g ai/ha) | Plant response rating, Barnyardgrass (barnyardgrass [12]; [28]) | Plant response rating, Corn (corn [14]; [28]) | Plant response rating, Wheat (wheat [22]; [28])
30: Plant response rating, Blackgrass (blackgrass [13]; [27]) | Plant response rating, Corn (corn [14]; [27])
55: Plant response rating, Ducksalad (Flood) (ducksalad)
70: Plant response rating, Ragweed (ragweed [8]; [26]) | Soybean plant response rating (soybean [10]; Test C, 125 g ai/ha) | Plant response rating, Ragweed (ragweed [19]; [27])
15: Plant response rating, Rice (Flood) (rice)
100: Plant response rating, Barnyardgrass (barnyardgrass [1]; [26]) | Plant response rating, Foxtail, Green (green foxtail [4]; [26]) | Foxtail, Green plant response rating (green foxtail [4]; Test C, 125 g ai/ha) | Plant response rating, Kochia (kochia [5]; [26]) | Plant response rating, Pigweed, Palmer (pigweed, palmer [7]; [26]) | Pigweed, Palmer plant response rating (pigweed, palmer [7]; Test C, 125 g ai/ha) | Plant response rating, Ryegrass, Italian (ryegrass, Italian [9]; [26]) | Plant response rating, Soybean (soybean [10]; [26]) | Plant response rating, Kochia (kochia [16]; [28]) | Plant response rating, Pigweed, Palmer (pigweed, palmer [18]; [27]) | Plant response rating, Pigweed, Palmer (pigweed, palmer [18]; [28]) | Plant response rating, Soybean (soybean [21]; [27]) | Plant response rating, Soybean (soybean [21]; [28]) | Plant response rating, Galium (galium; [27]) | Plant response rating, Galium (galium; [28])
60: Oat, Wild plant response rating (oat, wild [6]; Test C, 125 g ai/ha) | Plant response rating, Oat, Wild (oat, wild [17]; [28]) | Plant response rating, Ryegrass, Italian (ryegrass, Italian [20]; [27])
90: Barnyardgrass plant response rating (barnyardgrass [1]; Test C, 125 g ai/ha) | Kochia plant response rating (kochia [5]; Test C, 125 g ai/ha) | Plant response rating, Wheat (wheat [11]; [26]) | Plant response rating, Foxtail, Green (green foxtail [15]; [28]) | Plant response rating, Ragweed (ragweed [19]; [28]) | Plant response rating, Ryegrass, Italian (ryegrass, Italian [20]; [28]) | Plant response rating, Horseweed (horseweed; [28])
80: Plant response rating, Blackgrass (blackgrass [2]; [26]) | Plant response rating, Oat, Wild (oat, wild [6]; [26]) | Ryegrass, Italian plant response rating (ryegrass, Italian [9]; Test C, 125 g ai/ha) | Plant response rating, Blackgrass (blackgrass [13]; [28]) | Plant response rating, Kochia (kochia [16]; [27]) | Plant response rating, Horseweed (horseweed; [27])
95: Plant response rating, Sedge, Umbrella (Flood) (sedge, umbrella)
20: Plant response rating, Corn (corn [3]; [26]) | Corn plant response rating (corn [3]; Test C, 125 g ai/ha) | Ragweed plant response rating (ragweed [8]; Test C, 125 g ai/ha) | Plant response rating, Barnyardgrass (barnyardgrass [12]; [27]) | Plant response rating, Foxtail, Green (green foxtail [15]; [27]) | Plant response rating, Oat, Wild (oat, wild [17]; [27])
0: Plant response rating, Barnyardgrass (Flood) (barnyardgrass [23])
10: Plant response rating, Wheat (wheat [22]; [27])
